Activity calls are given as the source filed them.
Assays:
[1] = MC4R antagonists, dose response, counter-screen for LGR2 antagonist project, cell-based, plate reader, cherry pick (AID 743444); format: functional;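 further: transfected HEK 293 cells stimulated with alpha-MSH peptide; potency of inhibitors of the alpha-MSH evoked signal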
[2] = HEK293 cell cytotoxicity, dose response, cytotoxicity control, plate reader, cherry-picked samples (AID 743446); format: functional, cell-based
[3] = inhibitors of PGC1a acetylation in cells, dose response, cell-based, cherry-picked samples (AID 720514); format: functional;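 further: potency may reflect raised or lowered acetylation signal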
[4] = LGR2 antagonists, dose response, cell-based, HEK293, CRE-luciferase reporter, cherry pick, set 2 (AID 743343); format: functional;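 further: transfected cells were stimulated with diluted bursicon conditioned medium after compound addition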
[5] = non-specific cell cytotoxicity, dose response, cytotoxicity control for PAX8 inhibitor project, plate reader, dry powder samples (AID 743021); format: functional, cell-based
Paired box protein Pax-8 = Paired box protein Pax-8 (Homo sapiens, UniProt Q06710); assay: inhibitors of PAX8-driven TPO luciferase reporter, dose response, RMG-I cells, cherry-pick (AID 687027); format: functional, cell-based;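 further: luciferase reporter driven by Pax8 target thyroperoxidase promoter measured by SteadyGlo luminescence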
[6] = HepG2 cell cytotoxicity, dose response, cytotoxicity control, plate reader, cherry-pick, antagonist series (AID 743416); format: functional, cell-based
[7] = A549 cell cytotoxicity, dose response, cytotoxicity control, plate reader, cherry-pick, antagonist series (AID 743412); format: functional, cell-based
[8] = target: T1, Methionyl-tRNA synthetase, putative (Trypanosoma brucei brucei, UniProt Q38C91); format: functional, Trypanosoma brucei brucei strain 927/4 GUTat10.1
T1 sequence (Q38C91 whole entry): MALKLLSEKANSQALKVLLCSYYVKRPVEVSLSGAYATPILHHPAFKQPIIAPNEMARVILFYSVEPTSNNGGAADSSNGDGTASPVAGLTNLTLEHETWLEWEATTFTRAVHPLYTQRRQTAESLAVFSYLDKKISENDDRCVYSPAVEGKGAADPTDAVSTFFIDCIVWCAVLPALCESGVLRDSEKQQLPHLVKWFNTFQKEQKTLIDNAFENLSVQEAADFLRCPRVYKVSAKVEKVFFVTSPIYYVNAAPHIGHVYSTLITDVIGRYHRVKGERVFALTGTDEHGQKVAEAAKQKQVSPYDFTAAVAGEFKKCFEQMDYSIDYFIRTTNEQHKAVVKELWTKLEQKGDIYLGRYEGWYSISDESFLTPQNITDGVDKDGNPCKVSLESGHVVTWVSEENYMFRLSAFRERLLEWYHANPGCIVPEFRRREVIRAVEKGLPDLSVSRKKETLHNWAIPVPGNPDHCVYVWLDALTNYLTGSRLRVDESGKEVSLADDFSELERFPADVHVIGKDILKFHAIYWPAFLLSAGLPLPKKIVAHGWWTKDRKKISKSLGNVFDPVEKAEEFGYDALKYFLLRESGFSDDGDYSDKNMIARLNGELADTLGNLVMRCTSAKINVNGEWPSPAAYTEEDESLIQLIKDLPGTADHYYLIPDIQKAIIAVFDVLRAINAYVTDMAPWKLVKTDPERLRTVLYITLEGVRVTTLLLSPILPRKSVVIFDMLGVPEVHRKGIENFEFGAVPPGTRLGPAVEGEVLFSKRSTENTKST

[9] = target: T1, Methionyl-tRNA synthetase, putative; format: functional, Trypanosoma brucei brucei strain 927/4 GUTat10.1; remark: listed apart in the source
[10] = Late stage counterscreen for inhibitors of Trypanosoma brucei methionyl tRNA synthetase (MetRS): Luminescence-based cell-based high throughput dose response assay to identify compounds that are cytotoxic to Jurkat human T lymphocyte cells.; format: functional
[11] = Counterscreen for inhibitors of Trypanosoma brucei methionyl tRNA synthetase (MetRS): Luminescence-based cell-based high throughput dose response assay to identify compounds that are cytotoxic to Jurkat human T lymphocyte cells.; format: functional
[12] = target: T2, Heat shock factor protein 1 (Mus musculus, UniProt P38532); assay: HSF1 potentiators in luciferase reporter cells, confirmation, cell-based, NIH3T3, luminescence, dose retest (AID 435004); format: functional;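 further: stress induced by proteasome inhibitor MG132 added 30 min after compound; luciferase reporter driven by HSF1 response element in NIH3T3 cells; actives raise luminescence as potentiators of the MG132 stress response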
T2 sequence (P38532 whole entry): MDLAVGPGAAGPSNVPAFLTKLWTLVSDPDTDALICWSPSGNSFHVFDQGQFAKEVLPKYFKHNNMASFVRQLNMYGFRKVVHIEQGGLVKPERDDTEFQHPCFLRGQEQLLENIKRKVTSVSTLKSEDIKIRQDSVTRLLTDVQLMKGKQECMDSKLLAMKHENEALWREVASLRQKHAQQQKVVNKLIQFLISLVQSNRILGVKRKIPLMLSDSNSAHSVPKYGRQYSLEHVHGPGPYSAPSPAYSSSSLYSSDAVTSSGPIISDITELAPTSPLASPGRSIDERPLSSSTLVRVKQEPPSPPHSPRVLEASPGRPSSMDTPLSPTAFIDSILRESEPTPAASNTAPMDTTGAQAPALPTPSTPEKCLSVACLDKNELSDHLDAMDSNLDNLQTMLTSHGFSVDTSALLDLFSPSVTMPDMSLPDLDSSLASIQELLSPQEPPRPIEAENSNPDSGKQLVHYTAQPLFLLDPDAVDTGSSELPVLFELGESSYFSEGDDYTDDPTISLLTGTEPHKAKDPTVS

[13] = target: T3, Carboxy-terminal domain RNA polymerase II polypeptide A small phosphatase 1 (Homo sapiens, UniProt Q9GZU7); assay: inhibitors of CTDSP1, concentration-response testing, biochemical assay, absorbance-based, actives from ultra-high-throughput screening (AID 540297); format: functional
T3 sequence (Q9GZU7 whole entry): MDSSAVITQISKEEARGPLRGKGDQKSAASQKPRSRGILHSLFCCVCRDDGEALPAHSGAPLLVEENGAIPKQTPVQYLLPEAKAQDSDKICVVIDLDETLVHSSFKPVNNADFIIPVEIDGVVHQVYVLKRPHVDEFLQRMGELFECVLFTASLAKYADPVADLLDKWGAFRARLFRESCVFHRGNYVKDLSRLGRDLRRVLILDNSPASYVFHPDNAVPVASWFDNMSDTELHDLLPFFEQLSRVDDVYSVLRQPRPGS

[14] = target: Bifunctional protein GlmU (Mycobacterium tuberculosis, UniProt P9WMN3); assay: Inhibitors of Mycobacterial Glucosamine-1-phosphate acetyl transferase (GlmU). Secondary screen.; parameters: species or system Mycobacterium tuberculosis H37Rv
[15] = target: 1-phosphatidylinositol 4,5-bisphosphate phosphodiesterase beta-3 (Homo sapiens, UniProt Q01970); assay: Fluorescence-based biochemical high throughput dose response assay to identify inhibitors of phospholipase C isozymes (PLC-B3).
[16] = target: 1-phosphatidylinositol 4,5-bisphosphate phosphodiesterase gamma-1 (Homo sapiens, UniProt P19174); assay: Counterscreen for inhibitors of phospholipase C isozymes (PLC-B3): Fluorescence-based biochemical high throughput dose response assay to identify inhibitors of phospholipase C isozymes (PLC-gamma1).
[17] = cytotoxicity toward Colo320 cells – cell-based, CellTiter-Glo luminescence, IC50, dose response (AID 1117334); format: functional; details: COLO 320
[18] = HeLa 4N DNA content increase, dose response, cell-based, IC50 (AID 1117351); format: functional
[19] = Concentration-dependent survival of SW480 colon cancer line, luminescence detection with CellTiter-Glo, half-maximal inhibitory concentration (AID 1117338); format: functional
[20] = SNU-C1 cell viability reduction, dose response, CellTiter-Glo luminescence (AID 1117323); format: functional, cell-based
[21] = CellTiter-Glo luminescent dose response of DLD-1 viability loss (AID 1117352); format: functional
[22] = HeLa 2N DNA content increase, dose response, cell-based, IC50 (AID 1117349); format: functional
[23] = cytotoxicity toward HCT116 cells – cell-based, CellTiter-Glo luminescence, IC50, dose response (AID 1117332); format: functional; details: HCT-116
[24] = HCT116 cell viability decrease, GSK3B pretreatment – CellTiter-Glo, IC50, dose response (AID 1117339); format: functional; details: HCT-116
[25] = cytotoxicity toward HT-29 cells – cell-based, CellTiter-Glo luminescence, IC50, dose response (AID 1117330); format: functional
[26] = RKO cell viability reduction, dose response, CellTiter-Glo luminescence (AID 1117322); format: functional
[27] = P. falciparum Dd2 growth inhibitors, dose response, SYBR Green, dry powder samples (AID 1159566); format: functional, cell-based;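 further: potency for growth inhibition with lower SYBR green DNA signal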
[28] = P. falciparum Dd2 growth inhibitors, dose response, SYBR Green, cherry-picked samples (AID 1159567); format: functional, cell-based
[29] = HepG2 cell cytotoxicity, dose response, cytotoxicity control, plate reader, dry powder samples (AID 1159569); format: functional, cell-based;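 further: inhibitor potency with signal falling toward the positive control level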
[30] = P. falciparum ATP4 D1247Y mutant growth inhibitors, dose response, NITD609-resistant line, SYBR Green, dry powder (AID 1159571); format: functional, cell-based;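 further: parasites synchronized at ring stage by sorbitol before testing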
[31] = P. falciparum 3D7-ScDHODH growth inhibitors, dose response, SYBR Green, dry powder samples (AID 1159570); format: functional, cell-based;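 further: parasite growth measured after 72 hours of compound exposure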
fMet-Leu-Phe receptor = fMet-Leu-Phe receptor (Homo sapiens, UniProt P21462); assay: FPR ligands, dose response (AID 519); format: functional
Kallikrein-7 = Kallikrein-7 (Homo sapiens, UniProt P49862); assay: Fluorescence Intensity-based biochemical primary high throughput dose response assay to identify activators of kallikrein-7 (K7) zymogen.
Sequence of Kallikrein-7 (P49862 whole entry): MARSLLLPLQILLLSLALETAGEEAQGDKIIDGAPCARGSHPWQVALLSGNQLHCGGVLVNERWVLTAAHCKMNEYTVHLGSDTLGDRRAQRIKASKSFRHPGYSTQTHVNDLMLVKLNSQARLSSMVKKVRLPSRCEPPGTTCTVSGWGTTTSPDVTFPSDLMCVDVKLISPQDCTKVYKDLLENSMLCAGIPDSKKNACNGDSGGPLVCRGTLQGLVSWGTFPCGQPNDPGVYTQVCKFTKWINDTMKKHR

Sequence of 1-phosphatidylinositol 4,5-bisphosphate phosphodiesterase gamma-1 (P19174 whole entry): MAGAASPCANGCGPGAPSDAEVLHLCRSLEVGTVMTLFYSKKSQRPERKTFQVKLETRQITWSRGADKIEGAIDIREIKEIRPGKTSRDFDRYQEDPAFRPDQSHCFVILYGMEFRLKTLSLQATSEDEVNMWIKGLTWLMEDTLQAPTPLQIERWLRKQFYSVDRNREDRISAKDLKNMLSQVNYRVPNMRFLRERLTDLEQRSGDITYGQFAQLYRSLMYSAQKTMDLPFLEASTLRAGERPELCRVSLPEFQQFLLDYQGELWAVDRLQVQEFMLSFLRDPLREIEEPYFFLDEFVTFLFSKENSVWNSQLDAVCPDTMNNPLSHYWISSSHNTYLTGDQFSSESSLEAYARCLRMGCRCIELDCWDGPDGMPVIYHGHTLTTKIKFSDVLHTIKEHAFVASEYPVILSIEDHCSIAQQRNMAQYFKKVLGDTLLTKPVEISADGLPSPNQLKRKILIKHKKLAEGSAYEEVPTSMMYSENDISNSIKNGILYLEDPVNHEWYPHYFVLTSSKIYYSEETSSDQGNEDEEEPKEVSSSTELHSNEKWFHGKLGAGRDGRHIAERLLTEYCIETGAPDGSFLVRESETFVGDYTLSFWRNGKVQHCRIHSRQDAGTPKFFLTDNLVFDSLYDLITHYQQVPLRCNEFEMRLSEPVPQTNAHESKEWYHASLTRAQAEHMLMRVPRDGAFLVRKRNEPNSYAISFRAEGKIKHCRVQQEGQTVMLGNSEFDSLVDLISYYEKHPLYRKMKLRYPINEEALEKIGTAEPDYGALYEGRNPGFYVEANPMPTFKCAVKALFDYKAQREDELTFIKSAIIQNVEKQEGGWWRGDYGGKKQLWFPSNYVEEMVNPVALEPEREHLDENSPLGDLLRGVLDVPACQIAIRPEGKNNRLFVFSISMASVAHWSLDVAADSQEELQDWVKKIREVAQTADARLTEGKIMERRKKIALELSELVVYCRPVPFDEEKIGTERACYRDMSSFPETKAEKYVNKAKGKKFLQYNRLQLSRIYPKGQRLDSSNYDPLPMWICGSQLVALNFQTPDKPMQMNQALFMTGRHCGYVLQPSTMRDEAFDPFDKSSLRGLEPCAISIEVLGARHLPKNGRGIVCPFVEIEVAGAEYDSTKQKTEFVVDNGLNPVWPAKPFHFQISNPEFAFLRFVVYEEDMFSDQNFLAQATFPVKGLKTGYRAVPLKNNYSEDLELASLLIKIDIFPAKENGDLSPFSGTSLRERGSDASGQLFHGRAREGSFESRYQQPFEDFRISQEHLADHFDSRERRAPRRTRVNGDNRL
Sequence of 1-phosphatidylinositol 4,5-bisphosphate phosphodiesterase beta-3 (Q01970 whole entry): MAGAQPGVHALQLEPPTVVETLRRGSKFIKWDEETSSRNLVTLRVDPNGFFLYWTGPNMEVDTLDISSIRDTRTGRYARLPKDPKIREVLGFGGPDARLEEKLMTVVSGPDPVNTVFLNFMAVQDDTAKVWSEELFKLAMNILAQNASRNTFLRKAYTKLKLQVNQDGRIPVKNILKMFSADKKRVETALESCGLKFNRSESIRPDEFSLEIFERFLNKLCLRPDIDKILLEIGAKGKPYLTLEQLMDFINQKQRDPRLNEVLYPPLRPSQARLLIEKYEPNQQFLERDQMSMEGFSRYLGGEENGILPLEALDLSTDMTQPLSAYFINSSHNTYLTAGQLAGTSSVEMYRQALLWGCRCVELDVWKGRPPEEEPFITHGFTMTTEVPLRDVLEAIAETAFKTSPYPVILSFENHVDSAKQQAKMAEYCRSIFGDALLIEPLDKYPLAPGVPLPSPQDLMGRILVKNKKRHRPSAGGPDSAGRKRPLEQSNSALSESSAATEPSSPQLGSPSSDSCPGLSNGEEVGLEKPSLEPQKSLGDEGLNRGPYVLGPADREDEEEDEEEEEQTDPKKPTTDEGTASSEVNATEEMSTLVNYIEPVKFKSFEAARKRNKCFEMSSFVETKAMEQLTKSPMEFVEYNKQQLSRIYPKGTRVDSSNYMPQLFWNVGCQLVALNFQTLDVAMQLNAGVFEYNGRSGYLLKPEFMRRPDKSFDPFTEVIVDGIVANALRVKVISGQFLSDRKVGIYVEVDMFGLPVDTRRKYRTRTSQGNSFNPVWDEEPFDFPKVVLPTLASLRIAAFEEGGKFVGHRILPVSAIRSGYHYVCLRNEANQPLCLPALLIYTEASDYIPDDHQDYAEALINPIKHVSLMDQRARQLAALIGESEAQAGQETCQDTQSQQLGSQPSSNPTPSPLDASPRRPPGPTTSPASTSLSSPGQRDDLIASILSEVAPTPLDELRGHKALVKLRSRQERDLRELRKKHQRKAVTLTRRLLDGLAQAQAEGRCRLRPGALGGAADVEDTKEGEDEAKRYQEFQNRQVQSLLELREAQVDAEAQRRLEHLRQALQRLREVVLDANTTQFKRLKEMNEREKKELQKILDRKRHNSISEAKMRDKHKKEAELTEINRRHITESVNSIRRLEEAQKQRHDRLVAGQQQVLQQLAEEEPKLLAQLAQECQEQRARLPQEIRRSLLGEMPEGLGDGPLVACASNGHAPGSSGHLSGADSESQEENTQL
Sequence of Paired box protein Pax-8 (Q06710 whole entry): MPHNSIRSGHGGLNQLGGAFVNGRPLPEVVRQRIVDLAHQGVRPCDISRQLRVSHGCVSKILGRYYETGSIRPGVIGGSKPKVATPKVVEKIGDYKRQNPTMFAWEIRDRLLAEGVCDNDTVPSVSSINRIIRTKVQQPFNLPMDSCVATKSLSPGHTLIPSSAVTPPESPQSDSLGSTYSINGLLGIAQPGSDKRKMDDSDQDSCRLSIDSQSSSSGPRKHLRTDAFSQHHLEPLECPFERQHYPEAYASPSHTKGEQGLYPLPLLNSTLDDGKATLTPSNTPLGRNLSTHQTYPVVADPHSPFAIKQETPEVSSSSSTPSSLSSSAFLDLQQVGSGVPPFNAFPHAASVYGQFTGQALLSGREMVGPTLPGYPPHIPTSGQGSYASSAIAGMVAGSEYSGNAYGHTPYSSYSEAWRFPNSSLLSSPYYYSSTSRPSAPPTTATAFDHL
Sequence of fMet-Leu-Phe receptor (P21462 whole entry): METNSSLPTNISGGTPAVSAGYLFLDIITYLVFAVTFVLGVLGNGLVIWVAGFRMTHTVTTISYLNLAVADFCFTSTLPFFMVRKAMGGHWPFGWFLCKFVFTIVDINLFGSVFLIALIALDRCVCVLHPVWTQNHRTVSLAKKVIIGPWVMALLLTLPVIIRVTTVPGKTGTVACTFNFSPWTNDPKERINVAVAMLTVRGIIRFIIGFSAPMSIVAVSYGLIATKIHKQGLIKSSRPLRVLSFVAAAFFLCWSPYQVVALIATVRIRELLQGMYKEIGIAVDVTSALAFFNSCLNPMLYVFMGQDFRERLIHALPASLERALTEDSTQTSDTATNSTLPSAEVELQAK
Sequence of Bifunctional protein GlmU (P9WMN3 whole entry): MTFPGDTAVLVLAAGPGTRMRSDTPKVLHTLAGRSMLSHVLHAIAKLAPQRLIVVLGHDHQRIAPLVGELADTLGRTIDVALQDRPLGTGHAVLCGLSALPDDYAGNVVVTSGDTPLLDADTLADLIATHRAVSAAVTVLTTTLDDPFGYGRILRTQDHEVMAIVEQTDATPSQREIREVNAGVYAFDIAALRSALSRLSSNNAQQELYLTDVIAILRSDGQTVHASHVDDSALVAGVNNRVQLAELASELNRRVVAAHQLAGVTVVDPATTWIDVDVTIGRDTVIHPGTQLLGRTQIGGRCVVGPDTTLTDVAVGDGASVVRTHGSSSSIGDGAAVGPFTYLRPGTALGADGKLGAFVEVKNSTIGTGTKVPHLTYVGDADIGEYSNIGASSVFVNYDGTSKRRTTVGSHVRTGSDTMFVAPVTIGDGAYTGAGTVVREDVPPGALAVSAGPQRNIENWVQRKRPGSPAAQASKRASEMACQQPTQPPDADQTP

COc1ccc(-n2nnnc2C(CCc2ccccc2)N2CCC(n3c(O)nc4ccccc43)CC2)cc1 (stereo unspecified)
AC50 [1]: 9.43 µM (active) | AC50 [2]: 10.1 µM (active) | AC50 [3]: 21.4 µM (active) | AC50 [4]: 11.3 µM (active) | AC50 [5]: 24.5 µM (active) | AC50 (Paired box protein Pax-8): 7.54 µM (active) | AC50 [6]: > 52 µM (inactive) | AC50 [7]: 14.7 µM (active)

O=C(NCCc1nc2ccccc2[nH]1)c1ccc(Cl)c([N+](=O)[O-])c1
IC50 [8]: 0.17 µM (active) | IC50 [9]: 0.221 µM (active) | IC50 [10]: > 83.3 µM (inactive) | IC50 [11]: 44.4 µM (inactive) | EC50 [12]: > 260 µM (inactive)

CC1C=CC(C)C(C(=O)O)C1C(=O)O (stereo unspecified)
IC50 [13]: 4.36 µM (active) | IC50 [14]: 144 µM (active)

CC(C)(C)c1cc(C(=O)NNC(=O)Nc2ccccc2)n(Cc2ccccc2)n1
IC50 [15]: > 122 µM (inactive) | IC50 [16]: > 122 µM (inactive)

CN1CCC(Nc2ncc3ncnc(Nc4ccc(F)c(Cl)c4)c3n2)CC1
IC50 [17]: 11.7 µM (inactive) | IC50 [18]: > 10 µM (inactive) | IC50 [19]: 2.35 µM (active) | IC50 [20]: 12 µM (inactive) | IC50 [21]: 2.29 µM (active) | IC50 [22]: > 10 µM (inactive) | IC50 [23]: > 20 µM (inactive) | IC50 [24]: 3.38 µM (active) | IC50 [25]: 4 µM (active) | IC50 [26]: 3.17 µM (active)

C[C@@H]1CN([C@@H](C)CO)C(=O)c2cccc(NC(=O)c3nc4ccccc4s3)c2O[C@@H]1CN(C)C(=O)Nc1cccc2ccccc12
AC50 [27]: 2.51 µM (active) | AC50 [28]: 2.98 µM (active) | AC50 [29]: 71.7 µM (active) | AC50 [30]: 2 µM (active) | AC50 [31]: 2.73 µM (active)

Cc1ccc(NC(=O)c2oc3ccc(S(=O)(=O)N4CCOCC4)cc3c2C)cc1C
Ki (fMet-Leu-Phe receptor): > 66.7 µM (inactive)

COC(=O)C(C(=O)OC)[C@H]1C=C[C@@H](C(=O)NS(=O)(=O)c2ccc(C)cc2)N(C(C)=O)C1
IC50 [15]: > 122 µM (inactive) | IC50 [16]: 2.03 µM (active)

O=C(O)CCN1c2cccc3cccc(c23)S1(=O)=O
EC50 (Kallikrein-7): > 7.72 µM (active)
